Assay results taken from ChEMBL document CHEMBL4028834, “Stereoselective synthesis of enantiopure N-substituted pyrrolidin-2,5-dione derivatives by 1,3-dipolar cycloaddition and assessment of their in vitro antioxidant and antibacterial activities” (Bioorg Med Chem Lett, 2017).
≈ marks a conversion by molar mass, not a printed value. Values belong to the compound of their own block, whether it stands above or below them. Calls of active or inactive are those of the source. No cut-off for these calls is given here.

How the values were obtained:
Bacillus subtilis [1] = test: Antibacterial activity against Bacillus subtilis JN934392 assessed as diameter of inhibition zone at 15 microg/well by agar well diffusion method; type: functional; conditions: read-out: DIZ
Bacillus cereus [2] = test: Antibacterial activity against Bacillus cereus JN934390 assessed as diameter of inhibition zone at 15 microg/well by agar well diffusion method; type: functional; conditions: read-out: DIZ
Listeria monocytogenes [3] = test: Antibacterial activity against Listeria monocytogenes assessed as diameter of inhibition zone at 15 microg/well by agar well diffusion method; type: functional; conditions: read-out: DIZ
Micrococcus luteus [4] = test: Antibacterial activity against Micrococcus luteus assessed as diameter of inhibition zone at 15 microg/well by agar well diffusion method; type: functional; conditions: read-out: DIZ
Staphylococcus aureus [5] = test: Antibacterial activity against Staphylococcus aureus ATCC 6538 assessed as diameter of inhibition zone at 15 microg/well by agar well diffusion method; type: functional; conditions: read-out: DIZ
Salmonella enteritidis [6] = test: Antibacterial activity against Salmonella enterica serotype Enteritidis ATCC 43972 assessed as diameter of inhibition zone at 15 microg/well by agar well diffusion method; type: functional, Salmonella enterica subsp. enterica serovar Enteritidis; conditions: read-out: DIZ
Klebsiella pneumoniae [7] = test: Antibacterial activity against Klebsiella pneumoniae assessed as diameter of inhibition zone at 15 microg/well by agar well diffusion method; type: functional; conditions: read-out: DIZ
Escherichia coli [8] = test: Antibacterial activity against Escherichia coli ATCC 25922 assessed as diameter of inhibition zone at 15 microg/well by agar well diffusion method; type: functional; conditions: read-out: DIZ
[9] = Antioxidant activity assessed as DPPH free radical scavenging activity incubated for 20 mins in dark; type: functional
[10] = Antioxidant activity assessed as DPPH free radical scavenging activity at 0.5 mg/ml incubated for 20 mins in dark (reference value: 1 to 9 %); type: functional
[11] = Antioxidant activity assessed as DPPH free radical scavenging activity at 1 mg/ml incubated for 20 mins in dark (reference value: 1 to 9%); type: functional
[12] = Antioxidant activity assessed as DPPH free radical scavenging activity at 2 mg/ml incubated for 20 mins in dark (reference value: 1 to 9%); type: functional
[13] = Antioxidant activity assessed as DPPH free radical scavenging activity at 2.5 mg/ml incubated for 20 mins in dark (reference value: 1 to 9%); type: functional
[14] = Antioxidant activity assessed as DPPH free radical scavenging activity at 3 mg/ml incubated for 20 mins in dark (reference value: 1 to 9%); type: functional
[15] = Antioxidant activity assessed as reduction in beta-carotene/linoleic acid bleaching activity after 2 hrs by spectrophotometric method; type: functional
[16] = Antioxidant activity assessed as reduction in beta-carotene/linoleic acid bleaching activity at 0.5 mg/ml after 2 hrs by spectrophotometric method (reference value: 1 to 8 %); type: functional; design: scale not given: the % may be the effect or the level left
[17] = Antioxidant activity assessed as reduction in beta-carotene/linoleic acid bleaching activity at 1 mg/ml after 2 hrs by spectrophotometric method (reference value: 1 to 8%); type: functional; design: scale not given: the % may be the effect or the level left
[18] = Antioxidant activity assessed as reduction in beta-carotene/linoleic acid bleaching activity at 2 mg/ml after 2 hrs by spectrophotometric method (reference value: 1 to 8%); type: functional; design: scale not given: the % may be the effect or the level left
[19] = Antioxidant activity assessed as reduction in beta-carotene/linoleic acid bleaching activity at 2.5 mg/ml after 2 hrs by spectrophotometric method (reference value: 1 to 8%); type: functional; design: scale not given: the % may be the effect or the level left
[20] = Antioxidant activity assessed as reduction in beta-carotene/linoleic acid bleaching activity at 3 mg/ml after 2 hrs by spectrophotometric method (reference value: 1 to 8%); type: functional; design: scale not given: the % may be the effect or the level left
[21] = Antioxidant activity assessed as ABTS radical scavenging activity incubated for 2 hrs in dark by spectrophotometric analysis; type: functional
[22] = Antioxidant activity assessed as ABTS radical scavenging activity at 0.5 mg/ml incubated for 2 hrs in dark by spectrophotometric analysis (reference value: 1 to 9 %); type: functional
[23] = Antioxidant activity assessed as ABTS radical scavenging activity at 1 mg/ml incubated for 2 hrs in dark by spectrophotometric analysis (reference value: 1 to 9%); type: functional
[24] = Antioxidant activity assessed as ABTS radical scavenging activity at 2 mg/ml incubated for 2 hrs in dark by spectrophotometric analysis (reference value: 1 to 9%); type: functional
[25] = Antioxidant activity assessed as ABTS radical scavenging activity at 2.5 mg/ml incubated for 2 hrs in dark by spectrophotometric analysis (reference value: 1 to 9%); type: functional
[26] = Antioxidant activity assessed as ABTS radical scavenging activity at 3 mg/ml incubated for 2 hrs in dark by spectrophotometric analysis (reference value: 1 to 9%); type: functional
Bacillus cereus [27] = test: Antibacterial activity against Bacillus cereus JN934390 after 24 hrs by MTT dye based microdilution method; type: functional; conditions: JN934390, 24 h
Listeria monocytogenes [28] = test: Antibacterial activity against Listeria monocytogenes after 24 hrs by MTT dye based microdilution method; type: functional
Micrococcus luteus [29] = test: Antibacterial activity against Micrococcus luteus after 24 hrs by MTT dye based microdilution method; type: functional
Staphylococcus aureus [30] = test: Antibacterial activity against Staphylococcus aureus ATCC 6538 after 24 hrs by MTT dye based microdilution method; type: functional; conditions: ATCC 6538, 24 h
Salmonella enteritidis [31] = test: Antibacterial activity against Salmonella enterica serotype Enteritidis ATCC 43972 after 24 hrs by MTT dye based microdilution method; type: functional, Salmonella enterica subsp. enterica serovar Enteritidis; conditions: ATCC 43972, 24 h
Klebsiella pneumoniae [32] = test: Antibacterial activity against Klebsiella pneumoniae after 24 hrs by MTT dye based microdilution method; type: functional
Bacillus subtilis [33] = test: Antibacterial activity against Bacillus subtilis JN934392 after 24 hrs by MTT dye based microdilution method; type: functional; conditions: JN934392, 24 h
Bacillus subtilis [34] = test: Antibacterial activity against Bacillus subtilis JN934392 assessed as diameter of inhibition zone at 125 mg/ml by agar well diffusion method; type: functional; conditions: read-out: DIZ
Bacillus cereus [35] = test: Antibacterial activity against Bacillus cereus JN934390 assessed as diameter of inhibition zone at 125 mg/ml by agar well diffusion method; type: functional; conditions: read-out: DIZ
Listeria monocytogenes [36] = test: Antibacterial activity against Listeria monocytogenes assessed as diameter of inhibition zone at 125 mg/ml by agar well diffusion method; type: functional; conditions: read-out: DIZ
Micrococcus luteus [37] = test: Antibacterial activity against Micrococcus luteus assessed as diameter of inhibition zone at 125 mg/ml by agar well diffusion method; type: functional; conditions: read-out: DIZ
Staphylococcus aureus [38] = test: Antibacterial activity against Staphylococcus aureus ATCC 6538 assessed as diameter of inhibition zone at 125 mg/ml by agar well diffusion method; type: functional; conditions: read-out: DIZ
Salmonella enteritidis [39] = test: Antibacterial activity against Salmonella enterica serotype Enteritidis ATCC 43972 assessed as diameter of inhibition zone at 125 mg/ml by agar well diffusion method; type: functional, Salmonella enterica subsp. enterica serovar Enteritidis; conditions: read-out: DIZ
Klebsiella pneumoniae [40] = test: Antibacterial activity against Klebsiella pneumoniae assessed as diameter of inhibition zone at 125 mg/ml by agar well diffusion method; type: functional; conditions: read-out: DIZ
Escherichia coli [41] = test: Antibacterial activity against Escherichia coli ATCC 25922 assessed as diameter of inhibition zone at 125 mg/ml by agar well diffusion method; type: functional
Bacillus subtilis [42] = test: Bactericidal activity against Bacillus subtilis JN934392 after 48 hrs by MTT dye based microdilution method; type: functional; conditions: JN934392, 48 h
Bacillus cereus [43] = test: Bactericidal activity against Bacillus cereus JN934390 after 48 hrs by MTT dye based microdilution method; type: functional; conditions: JN934390, 48 h
Listeria monocytogenes [44] = test: Bactericidal activity against Listeria monocytogenes after 48 hrs by MTT dye based microdilution method; type: functional
Micrococcus luteus [45] = test: Bactericidal activity against Micrococcus luteus after 48 hrs by MTT dye based microdilution method; type: functional
Staphylococcus aureus [46] = test: Bactericidal activity against Staphylococcus aureus ATCC 6538 after 48 hrs by MTT dye based microdilution method; type: functional; conditions: ATCC 6538, 48 h
Salmonella enteritidis [47] = test: Bactericidal activity against Salmonella enterica serotype Enteritidis ATCC 43972 after 48 hrs by MTT dye based microdilution method; type: functional, Salmonella enterica subsp. enterica serovar Enteritidis; conditions: ATCC 43972, 48 h
Klebsiella pneumoniae [48] = test: Bactericidal activity against Klebsiella pneumoniae after 48 hrs by MTT dye based microdilution method; type: functional
Listeria monocytogenes [49] = test: Potency index, ratio of compound DIZ to chloramphenicol DIZ for Listeria monocytogenes; type: functional

SMILES: O=C(N[C@H](CO)[C@H](O)c1ccc([N+](=O)[O-])cc1)C(Cl)Cl [CHLORAMPHENICOL]
zone of inhibition at 15 µg/disc (Bacillus subtilis [1]): 24 mm
zone of inhibition at 15 µg/disc (Bacillus cereus [2]): 26 mm
zone of inhibition at 15 µg/disc (Listeria monocytogenes [3]): 12 mm
zone of inhibition at 15 µg/disc (Micrococcus luteus [4]): 20 mm
zone of inhibition at 15 µg/disc (Staphylococcus aureus [5]): 17 mm
zone of inhibition at 15 µg/disc (Salmonella enteritidis [6]): 16 mm
zone of inhibition at 15 µg/disc (Klebsiella pneumoniae [7]): 22 mm
zone of inhibition at 15 µg/disc (Escherichia coli [8]): 23.5 mm

IC50 [9]: 500 µg/mL (≈ 1.14 mM)
IC50 [15]: 430 µg/mL (≈ 0.978 mM)
IC50 [21]: 420 µg/mL (≈ 0.956 mM)
MIC (Bacillus cereus [27]): 3120 µg/mL (≈ 7.1 mM)
MIC (Listeria monocytogenes [28]): 1560 µg/mL (≈ 3.55 mM)
MIC (Micrococcus luteus [29]): 6250 µg/mL (≈ 14.2 mM)
MIC (Staphylococcus aureus [30]): 6250 µg/mL (≈ 14.2 mM)
MIC (Salmonella enteritidis [31]): 3120 µg/mL (≈ 7.1 mM)
MIC (Klebsiella pneumoniae [32]): 3120 µg/mL (≈ 7.1 mM)
MIC (Bacillus subtilis [33]): 3120 µg/mL (≈ 7.1 mM)
SMILES: Cc1ccc(N2C(=O)[C@H]3[C@H](ON4[C@@H]3C(=O)N(C)[C@@]43C[C@H](C)CC[C@H]3C(C)C)C2=O)c(C)c1
Activity [9]: Dose-dependent effect
Activity [10]: 49.9%
Activity [11]: 57%
Activity [12]: 72%
Activity [13]: 77.1%
Activity [14]: 73.2 to 89.3%
Activity [16]: 51%
Activity [17]: 53.1%
Activity [18]: 57%
Activity [19]: 65.6%
Activity [20]: 71.3%
Activity [22]: 52.9%
Activity [23]: 69%
Activity [24]: 79.4%
Activity [25]: 82.6%
Activity [26]: 85.8%
zone of inhibition at 125000 µg/mL (Bacillus subtilis [34]): 20.7 mm
zone of inhibition at 125000 µg/mL (Bacillus cereus [35]): 21.7 mm
zone of inhibition at 125000 µg/mL (Listeria monocytogenes [36]): 24.7 mm
zone of inhibition at 125000 µg/mL (Micrococcus luteus [37]): 9.66 mm
zone of inhibition at 125000 µg/mL (Staphylococcus aureus [38]): 22 mm
zone of inhibition at 125000 µg/mL (Salmonella enteritidis [39]): 20.3 mm
zone of inhibition at 125000 µg/mL (Klebsiella pneumoniae [40]): 23 mm
diameter of the inhibition zone (DIZ) (Escherichia coli [41]): inactive
MBC (Bacillus subtilis [42]): 12500 µg/mL (≈ 28.4 mM)
MBC (Bacillus cereus [43]): 25000 µg/mL (≈ 56.9 mM)
MBC (Listeria monocytogenes [44]): 3120 µg/mL (≈ 7.1 mM)
MBC (Micrococcus luteus [45]): 50000 µg/mL (≈ 114 mM)
MBC (Staphylococcus aureus [46]): 12500 µg/mL (≈ 28.4 mM)
MBC (Salmonella enteritidis [47]): 12500 µg/mL (≈ 28.4 mM)
MBC (Klebsiella pneumoniae [48]): 6250 µg/mL (≈ 14.2 mM)
Ratio (Listeria monocytogenes [49]): 2
